Literature values as cited in patent publication US9788539B2, “Platelet protection solution having beta-galactosidase and sialidase inhibitors” (Velico Medical, Inc., priority 2011, dated 2017).

Target: viral, bacterial and mammalian sialidases
Conditions: cited from earlier work

CC(=O)NC1C(O)C=C(C(=O)O)OC1C(O)C(O)CO (stereo not shown) [DANA]
Ki: low μM range
